The source of these data is US8431525B2, “Coelenteramide analogs” (JNC Corporation, priority 2009, dated 2013).

Data set [1] can be described thus: Fluorescence spectrum and fluorescence quantum yield of CTMD analogs at 750 nM (Example 1). The class given is physicochemical. Conditions: for fluorescence spectrum detected / λmax (MeOH)/nm / Fluorescence quantum yield (MeOH): 750 nM; for fluorescence properties compared with known CTMD (c-4) or h-CTMD (c-13): from TABLE 1; for λmax (PB)/nm / λmax (MeOH)/nm: fluorescence emission; for λmax (PB)/nm / Fluorescence quantum yield (PB): 67 mM phosphate buffer pH 7.4, 750 nM; for λmax (PB)/nm / λmax (MeOH)/nm / Fluorescence quantum yield (MeOH) / Fluorescence quantum yield (PB): 25° C., excited at 330 nm; for λmax (MeOH)/nm / Fluorescence quantum yield (MeOH): methanol; for Fluorescence quantum yield (MeOH) / Fluorescence quantum yield (PB): relative to quinine sulfate 0.55. As to the method: (§1) The fluorescence quantum yield of each CTMD analog synthesized was determined by the following procedure. The fluorescence spectrum was measured at 25° C. using a spectrofluorometer FP-6500 of JASCO (JASCO Corp., Tokyo). Specifically, the CTMD analog was dissolved in methanol (MeOH) or in 67 mM phosphate buffer (PB) (pH 7.4) at a final concentration of 750 nM using a quartz cell (light path length of 10 mm). Measurement was performed 3 times at the excited wavelength of 330 nm, emission/excitation band width of 3 nm, response of 0.5 second and scanning rate of 100 nm/min. The average was taken as the fluorescence spectrum of the compound. The fluorescence quantum yield was determined after the spectrum was corrected.
Quinine sulfate was used as a standard for determining the fluorescence quantum yield. After quinine sulfate (Wako Pure Chemical Industries) was dissolved in 0.1N sulfuric acid aqueous solution, measurement was performed at the excitation light of 366 nm under the conditions for fluorescence measurements described above. The relative fluorescence quantum yield (fluorescence intensity) of the compound was calculated relative to the quantum yield of quinine sulfate as being 0.55.

The nature of data set [2]: Fluorescence spectra at a final concentration of 30 μM (Example 2). Conditions: excited at 330 nm; for Fluorescence Intensity (MeOH) / λmax (MeOH)/nm: methanol, 30 μM; for Fluorescence Intensity (PB) / λmax (PB)/nm: phosphate buffer pH 7.4, 30 μM. The class given is physicochemical. As to the method: as §1
(§2) The fluorescence quantum yield determined in EXAMPLE 1 was estimated by measuring the fluorescence spectra when the final concentration of coelenteramide analogs was 750 nM. When the final concentration was 750 nM as in EXAMPLE 1, any fluorescence spectrum was not detected for c-14, c-31 and c-36 both in methanol and in a phosphate buffer, and not detected for c-25 in a phosphate buffer, in coelenteramide analogs of the present invention (n.d.: not detected). With respect to c-14, c-31, c-25 and c-36 that no fluorescence spectrum was detected, fluorescence spectra were measured under the same conditions as in EXAMPLE 1 except that the final concentration of these coelenteramide analogs was 30 μM. In a similar method, the fluorescence spectrum for C-4 was also measured at a final concentration of 30 μM. The fluorescence spectrum also for […] was measured in 50 mM Tris-HCl (pH 7.6) containing 10 mM CaCl2 under the same conditions as in EXAMPLE 1 except that the final concentration was 18 μM.

For data set [3] the following is noted: 0.1N H2SO4, ex. 366 nm; value taken as reference; cited from earlier work.
A short description of data set [4]: Fluorescence spectrum in 50 mM Tris-HCl (pH 7.6) containing 10 mM CaCl2 at 18 μM. The data set is classed as physicochemical. Conditions: 10 mM CaCl2, 18 μM. As to the method: as §2
The fluorescence spectrum of c-38 was measured at 25° C. using a JASCO spectrofluorometer FP-6500 (JASCO Corp., Tokyo). Specifically, c-38 was dissolved in 50 mM Tris-HCl (pH 7.6) containing 10 mM CaCl2 at a final concentration of 18 μM using a quartz cell (light path length of 10 mm). […] The average was taken as the fluorescence spectrum.

The mark [5] stands for this setting: both in methanol and in a phosphate buffer.

For orientation: melting point means the temperature, or range, at which the solid turns liquid.

For the molecule `Oc1ccc(-c2cnc(NC(=S)Cc3ccccc3)c(Cc3ccccc3)n2)cc1` [c-14, 3-Benzyl-5-(4-hydroxyphenyl)-2-(phenylthioacetylamino)pyrazine], the melting point was in the range of 195 to 198 °C. Moreover, the fluorescence spectrum detected result in data set [1] (setting [5]) is given as “not detected”. In addition, the “fluorescence properties compared with known CTMD (c-4) or h-CTMD (c-13)” value in data set [1] is “different fluorescence properties”. In data set [2], the “Fluorescence Intensity (MeOH)” value is on record as 6.5, the “λmax (MeOH)/nm” value is recorded as 428.0 nm, the “Fluorescence Intensity (PB)” value came out at 1.4 and the “λmax (PB)/nm” value came out at 435.5 nm.
With `C=C[C@H]1CN2CC[C@H]1C[C@H]2[C@H](O)c1ccnc2ccc(OC)cc12.C=C[C@H]1CN2CC[C@H]1C[C@H]2[C@H](O)c1ccnc2ccc(OC)cc12.O=S(=O)(O)O` [quinine, quinine sulfate, reference compound], the “λmax of the standard” value in data set [1] (0.1N H2SO4, ex. 366 nm) is on record as 451 nm. In addition, the “Fluorescence quantum yield of the standard” value in data set [3] was 0.55.
On to `Oc1ccc(CC(=S)Nc2ncc(-c3ccc(O)cc3)nc2Cc2ccccc2)cc1` [c-45, 3-Benzyl-5-(4-hydroxyphenyl)-2-[(4-hydroxyphenyl)thioacetylamino]pyrazine], for which the melting point was 101 to 103 °C. Besides, the “fluorescence ability in an aqueous solution” value in data set [4] was “had the fluorescence ability”.
In the case of `O=S(=O)(Cc1ccc(O)cc1)Nc1ncc(-c2ccc(O)cc2)nc1Cc1ccccc1` [c-38, 3-Benzyl-2-(4-hydroxybenzyl)sulfonylamino-5-(4-hydroxyphenyl)pyrazine], the melting point was 194.5 to 196.5 °C. The fluorescence capacity result in data set [4] (excited at 330 nm, FIG. 4) was “has the fluorescence capacity”.
`CC(=O)Nc1ncc(-c2ccc(O)cc2)nc1Cc1ccccc1` [c-25, 2-Acetylamino-3-benzyl-5-(4-hydroxyphenyl)pyrazine]: the fluorescence spectrum detected entry in data set [1] (in a phosphate buffer) is “not detected”. In addition, in data set [1], the “λmax (PB)/nm” value came to 446.5 nm, the “λmax (MeOH)/nm” value is 425.5 nm and the “Fluorescence quantum yield (MeOH)” value came out at 0.009. Also, in data set [2], the “Fluorescence Intensity (PB)” value is 2.0 and the “λmax (PB)/nm” value is on record as 446.0 nm.
For the molecule `O=[N+]([O-])c1ccc(S(=O)(=O)Nc2ncc(-c3ccc(O)cc3)nc2Cc2ccccc2)cc1` [c-36, 3-Benzyl-5-(4-hydroxyphenyl)-2-[(4-nitrophenyl)sulfonylamino]pyrazine], the melting point is 176 to 177.5 °C (dec.). For the same molecule, the fluorescence spectrum detected entry in data set [1] (setting [5]) is “not detected”. In data set [1], the “fluorescence properties compared with known CTMD (c-4) or h-CTMD (c-13)” value was “different fluorescence properties”. In data set [2], the “Fluorescence Intensity (MeOH)” value was 3.6, the “λmax (MeOH)/nm” value was 433.0 nm, the “Fluorescence Intensity (PB)” value stood at 0.8 and the “λmax (PB)/nm” value is reported as 433.5 nm.
Regarding `O=S(=O)(Cc1ccccc1)Nc1ncc(-c2ccc(O)cc2)nc1Cc1ccccc1` [c-15, 3-Benzyl-2-benzylsulfonylamino-5-(4-hydroxyphenyl)pyrazine], the melting point is 144 to 147 °C (dec.). For the same molecule, in data set [1], the “Fluorescence quantum yield (PB)” value came out at 0.137, the “λmax (PB)/nm” value is 435.5 nm, the “λmax (MeOH)/nm” value was determined as 429.5 nm and the “fluorescence properties compared with known CTMD (c-4) or h-CTMD (c-13)” value is “different fluorescence properties”. Besides, the “Fluorescence quantum yield (MeOH)” value in data set [1] was found to be 0.066.
Take `CC(=O)Oc1ccc(-c2cnc(NC(=S)Cc3ccccc3)c(Cc3ccccc3)n2)cc1` [c-31, 5-(4-Acetoxyphenyl)-3-benzyl-2-(phenylthioacetylamino)pyrazine]: the melting point fell in the range of 143 to 145 °C. The fluorescence spectrum detected result in data set [1] (setting [5]) is recorded as “not detected”. In addition, the “fluorescence properties compared with known CTMD (c-4) or h-CTMD (c-13)” value in data set [1] is “different fluorescence properties”. In data set [2], the “Fluorescence Intensity (MeOH)” value is reported as 5.2, the “λmax (MeOH)/nm” value turned out to be 422.0 nm, the “Fluorescence Intensity (PB)” value is reported as 1.7 and the “λmax (PB)/nm” value is 413.5 nm.
Take `O=C(Cc1ccc(O)cc1)Nc1ncc(-c2ccc(O)cc2)nc1Cc1ccccc1` [c-4, 3-benzyl-5-(4-hydroxyphenyl)-2-[(4-hydroxyphenyl)acetylamino]pyrazine, reference compound]: in data set [1], the “Fluorescence quantum yield (PB)” value was 0.001, the “λmax (PB)/nm” value was determined as 451 nm, the “λmax (MeOH)/nm” value was found to be 427.5 nm and the “Fluorescence quantum yield (MeOH)” value was found to be 0.012. In data set [2], the “Fluorescence Intensity (MeOH)” value is reported as 80.0, the “λmax (MeOH)/nm” value was determined as 428.0 nm, the “Fluorescence Intensity (PB)” value amounted to 1.7 and the “λmax (PB)/nm” value came out at 444.5 nm.
`CC(=O)Oc1ccc(CC(=O)Nc2ncc(-c3ccc(OC(C)=O)cc3)nc2Cc2ccccc2)cc1` [c-29, 5-(4-Acetoxyphenyl)-2-(4-acetoxyphenyl)acetylamino-3-benzylpyrazine] came in with a melting point of 225 to 227 °C. For the same molecule, in data set [1], the “Fluorescence quantum yield (PB)” value was found to be 0.029, the “λmax (PB)/nm” value was 386.5 nm, the “λmax (MeOH)/nm” value was 376.5 nm and the “Fluorescence quantum yield (MeOH)” value is given as 0.086.
In turn, `CC(=O)Oc1ccc(-c2cnc(N(S(=O)(=O)Cc3ccccc3)S(=O)(=O)Cc3ccccc3)c(Cc3ccccc3)n2)cc1` [c-20, 5-(4-Acetoxyphenyl)-3-benzyl-2-bis(benzylsulfonyl)aminopyrazine] displayed a melting point of 84 to 86.5 °C. Further, in data set [1], the “Fluorescence quantum yield (PB)” value came out at 0.026, the “λmax (PB)/nm” value is 420 nm, the “λmax (MeOH)/nm” value is recorded as 399.5 nm and the “fluorescence properties compared with known CTMD (c-4) or h-CTMD (c-13)” value is on record as “different fluorescence properties”. The “Fluorescence quantum yield (MeOH)” value in data set [1] stood at 0.185.
`CC(=O)Oc1ccc(-c2cnc(NC(=O)Cc3ccccc3)c(Cc3ccccc3)n2)cc1` [c-30, 5-(4-Acetoxyphenyl)-3-benzyl-2-(phenylacetylamino)pyrazine]: the melting point is 228 to 231 °C. In data set [1], the “Fluorescence quantum yield (PB)” value came out at 0.040, the “λmax (PB)/nm” value is 391 nm, the “λmax (MeOH)/nm” value worked out at 373.5 nm and the “Fluorescence quantum yield (MeOH)” value worked out at 0.008.
`CC(=O)Oc1ccc(-c2cnc(N(S(C)(=O)=O)S(C)(=O)=O)c(Cc3ccccc3)n2)cc1` [c-39, 5-(4-Acetoxyphenyl)-3-benzyl-2-bis(methanesulfonyl)aminopyrazine] displayed a melting point of 165.5 to 167 °C. For the same molecule, in data set [1], the “Fluorescence quantum yield (PB)” value is reported as 0.096, the “λmax (PB)/nm” value turned out to be 419 nm, the “λmax (MeOH)/nm” value is given as 381.5 nm and the “fluorescence properties compared with known CTMD (c-4) or h-CTMD (c-13)” value was “different fluorescence properties”. In addition, in data set [1], the “Fluorescence quantum yield (MeOH)” value was determined as 0.079.
